Species on record: Rattus norvegicus
Experiment: Open TG-GATES - Regimen: Daily Repeat
Assay type: toxicity, organism-based, Sprague-Dawley
Set-up: regimen Daily Repeat, gender Male, age 6 weeks
Conditions: in vivo, po, 15 mg/kg, route gavage, dose level Low; for APTT / Bas / Eos / Fbg / Hb / Ht / Lym / MCH / MCHC / MCV / Mono / Neu / PT / Plat / RBC / Ret / WBC: tissue Blood; for KIDNEY_L / KIDNEY_R / KIDNEY_TOTAL: tissue Kidney; for LIVER: tissue Liver; for A/G / ALP / ALT / AST / BUN / CRE / Ca / Cl / DBIL / GLC / IP / K / LDH / Na / PL / RALB / TBIL / TC / TG / TP / gamma-GTP: tissue Plasma

Nc1nc(N)c2nc(-c3ccccc3)c(N)nc2n1
TERMINAL_BW (72 h, time 3 day): 248.4 g | APTT (72 h, time 3 day): 16.1 s | Bas (72 h, time 3 day): 0.2% | Eos (72 h, time 3 day): 0.6% | Fbg (72 h, time 3 day): 310.8 mg/dL | Hb (72 h, time 3 day): 14.1 g/dL | Ht (72 h, time 3 day): 41.7% | Lym (72 h, time 3 day): 78.4% | MCH (72 h, time 3 day): 21.8 pg | MCHC (72 h, time 3 day): 33.8% | MCV (72 h, time 3 day): 64.7 fL | Mono (72 h, time 3 day): 2.2% | Neu (72 h, time 3 day): 18.2% | PT (72 h, time 3 day): 13.8 s | Plat (72 h, time 3 day): 132.9 x10_4/uL | RBC (72 h, time 3 day): 645.4 x10_4/ul | Ret (72 h, time 3 day): 6.8% | WBC (72 h, time 3 day): 109.4 x10_2/uL | KIDNEY_L (72 h, time 3 day): 1.1 g | KIDNEY_R (72 h, time 3 day): 1 g | KIDNEY_TOTAL (72 h, time 3 day): 2.1 g | LIVER (72 h, time 3 day): 11.6 g | A/G (72 h, time 3 day): 0.9 | ALP (72 h, time 3 day): 1861.8 IU/L | ALT (72 h, time 3 day): 41.4 IU/L | AST (72 h, time 3 day): 66 IU/L | BUN (72 h, time 3 day): 14.8 mg/dL | CRE (72 h, time 3 day): 0.2 mg/dL | Ca (72 h, time 3 day): 11 mg/dL | Cl (72 h, time 3 day): 105.4 meq/L | DBIL (72 h, time 3 day): 0.01 mg/dL | GLC (72 h, time 3 day): 175.2 mg/dL | IP (72 h, time 3 day): 7.8 mg/dL | K (72 h, time 3 day): 3.8 meq/L | LDH (72 h, time 3 day): 67.2 IU/L | Na (72 h, time 3 day): 142.8 meq/L | PL (72 h, time 3 day): 159.4 mg/dL | RALB (72 h, time 3 day): 2.6 g/dL | TBIL (72 h, time 3 day): 0.042 mg/dL | TC (72 h, time 3 day): 81.4 mg/dL | TG (72 h, time 3 day): 115 mg/dL | TP (72 h, time 3 day): 5.6 g/dL | gamma-GTP (72 h, time 3 day): 1.2 IU/L | TERMINAL_BW ([…], time 7 day): 282.4 g | TERMINAL_BW ([…], time 14 day): 340.6 g | TERMINAL_BW ([…], time 28 day): 410.6 g | APTT ([…], time 7 day): 16.7 s | Bas ([…], time 7 day): 0% | Eos ([…], time 7 day): 1% | Fbg ([…], time 7 day): 313.2 mg/dL | Hb ([…], time 7 day): 13.7 g/dL | Ht ([…], time 7 day): 42.1% | Lym ([…], time 7 day): 77.2% | MCH ([…], time 7 day): 20.1 pg | MCHC ([…], time 7 day): 32.4% | MCV ([…], time 7 day): 61.9 fL | Mono ([…], time 7 day): 2.4% | Neu ([…], time 7 day): 19.2% | PT ([…], time 7 day): 13.9 s | Plat ([…], time 7 day): 123.2 x10_4/uL | RBC ([…], time 7 day): 679.2 x10_4/ul | Ret ([…], time 7 day): 5.5% | WBC ([…], time 7 day): 88.7 x10_2/uL | APTT ([…], time 14 day): 18 s | Bas ([…], time 14 day): 0% | Eos ([…], time 14 day): 1% | Fbg ([…], time 14 day): 295.2 mg/dL | Hb ([…], time 14 day): 14.5 g/dL | Ht ([…], time 14 day): 44.4% | Lym ([…], time 14 day): 79.2% | MCH ([…], time 14 day): 20.2 pg | MCHC ([…], time 14 day): 32.7% | MCV ([…], time 14 day): 61.6 fL | Mono ([…], time 14 day): 2.2% | Neu ([…], time 14 day): 17.2% | PT ([…], time 14 day): 13.1 s | Plat ([…], time 14 day): 114.4 x10_4/uL | RBC ([…], time 14 day): 720.6 x10_4/ul | Ret ([…], time 14 day): 4.2% | WBC ([…], time 14 day): 94.6 x10_2/uL | APTT ([…], time 28 day): 18.6 s | Bas ([…], time 28 day): 0.2% | Eos ([…], time 28 day): 1.2% | Fbg ([…], time 28 day): 294.8 mg/dL | Hb ([…], time 28 day): 15.6 g/dL | Ht ([…], time 28 day): 46.4% | Lym ([…], time 28 day): 78.6% | MCH ([…], time 28 day): 18.9 pg | MCHC ([…], time 28 day): 33.6% | MCV ([…], time 28 day): 56.3 fL | Mono ([…], time 28 day): 1.8% | Neu ([…], time 28 day): 17.6% | PT ([…], time 28 day): 13.4 s | Plat ([…], time 28 day): 111.2 x10_4/uL | RBC ([…], time 28 day): 825 x10_4/ul | Ret ([…], time 28 day): 2.1% | WBC ([…], time 28 day): 89.6 x10_2/uL | KIDNEY_L ([…], time 7 day): 1.2 g | KIDNEY_R ([…], time 7 day): 1.1 g | KIDNEY_TOTAL ([…], time 7 day): 2.3 g | KIDNEY_L ([…], time 14 day): 1.3 g | KIDNEY_R ([…], time 14 day): 1.2 g | KIDNEY_TOTAL ([…], time 14 day): 2.5 g | KIDNEY_L ([…], time 28 day): 1.4 g | KIDNEY_R ([…], time 28 day): 1.4 g | KIDNEY_TOTAL ([…], time 28 day): 2.8 g | LIVER ([…], time 7 day): 13.1 g | LIVER ([…], time 14 day): 14.6 g | LIVER ([…], time 28 day): 15.5 g | A/G ([…], time 7 day): 0.8 | ALP ([…], time 7 day): 1439.8 IU/L | ALT ([…], time 7 day): 39.8 IU/L | AST ([…], time 7 day): 62.6 IU/L | BUN ([…], time 7 day): 14.8 mg/dL | CRE ([…], time 7 day): 0.2 mg/dL | Ca ([…], time 7 day): 11 mg/dL | Cl ([…], time 7 day): 104.6 meq/L | DBIL ([…], time 7 day): 0.016 mg/dL | GLC ([…], time 7 day): 185 mg/dL | IP ([…], time 7 day): 7.9 mg/dL | K ([…], time 7 day): 4 meq/L | LDH ([…], time 7 day): 60.4 IU/L | Na ([…], time 7 day): 143.4 meq/L | PL ([…], time 7 day): 155.6 mg/dL | RALB ([…], time 7 day): 2.6 g/dL | TBIL ([…], time 7 day): 0.074 mg/dL | TC ([…], time 7 day): 75.2 mg/dL | TG ([…], time 7 day): 137 mg/dL | TP ([…], time 7 day): 5.7 g/dL | gamma-GTP ([…], time 7 day): 1.2 IU/L | A/G ([…], time 14 day): 0.9 | ALP ([…], time 14 day): 1252.8 IU/L | ALT ([…], time 14 day): 40.2 IU/L | AST ([…], time 14 day): 62.6 IU/L | BUN ([…], time 14 day): 16.2 mg/dL | CRE ([…], time 14 day): 0.2 mg/dL | Ca ([…], time 14 day): 10.4 mg/dL | Cl ([…], time 14 day): 105 meq/L | DBIL ([…], time 14 day): 0.012 mg/dL | GLC ([…], time 14 day): 180.2 mg/dL | IP ([…], time 14 day): 7.5 mg/dL | K ([…], time 14 day): 3.8 meq/L | LDH ([…], time 14 day): 58 IU/L | Na ([…], time 14 day): 143.4 meq/L | PL ([…], time 14 day): 141.6 mg/dL | RALB ([…], time 14 day): 2.7 g/dL | TBIL ([…], time 14 day): 0.068 mg/dL | TC ([…], time 14 day): 67.4 mg/dL | TG ([…], time 14 day): 111.6 mg/dL | TP ([…], time 14 day): 5.8 g/dL | gamma-GTP ([…], time 14 day): 1 IU/L | A/G ([…], time 28 day): 0.8 | ALP ([…], time 28 day): 1186.2 IU/L | ALT ([…], time 28 day): 35.6 IU/L | AST ([…], time 28 day): 63.4 IU/L | BUN ([…], time 28 day): 16.2 mg/dL | CRE ([…], time 28 day): 0.3 mg/dL | Ca ([…], time 28 day): 10.7 mg/dL | Cl ([…], time 28 day): 104.6 meq/L | DBIL ([…], time 28 day): 0.01 mg/dL | GLC ([…], time 28 day): 187.6 mg/dL | IP ([…], time 28 day): 6.6 mg/dL | K ([…], time 28 day): 3.9 meq/L | LDH ([…], time 28 day): 54.4 IU/L | Na ([…], time 28 day): 143 meq/L | PL ([…], time 28 day): 140.4 mg/dL | RALB ([…], time 28 day): 2.7 g/dL | TBIL ([…], time 28 day): 0.06 mg/dL | TC ([…], time 28 day): 69.6 mg/dL | TG ([…], time 28 day): 123 mg/dL | TP ([…], time 28 day): 6 g/dL | gamma-GTP ([…], time 28 day): 1 IU/L
